Each structure is given as a SMILES string. Some results are limits rather than exact numbers.

These results are taken from US20110105457A1, “HETEROCYCLIC COMPOUND HAVING INHIBITORY ACTIVITY ON PI3K” (SHIONOGI & CO., LTD., priority 2008, published 2011).

Sequence of PI-3 kinase γ (P48736 whole entry): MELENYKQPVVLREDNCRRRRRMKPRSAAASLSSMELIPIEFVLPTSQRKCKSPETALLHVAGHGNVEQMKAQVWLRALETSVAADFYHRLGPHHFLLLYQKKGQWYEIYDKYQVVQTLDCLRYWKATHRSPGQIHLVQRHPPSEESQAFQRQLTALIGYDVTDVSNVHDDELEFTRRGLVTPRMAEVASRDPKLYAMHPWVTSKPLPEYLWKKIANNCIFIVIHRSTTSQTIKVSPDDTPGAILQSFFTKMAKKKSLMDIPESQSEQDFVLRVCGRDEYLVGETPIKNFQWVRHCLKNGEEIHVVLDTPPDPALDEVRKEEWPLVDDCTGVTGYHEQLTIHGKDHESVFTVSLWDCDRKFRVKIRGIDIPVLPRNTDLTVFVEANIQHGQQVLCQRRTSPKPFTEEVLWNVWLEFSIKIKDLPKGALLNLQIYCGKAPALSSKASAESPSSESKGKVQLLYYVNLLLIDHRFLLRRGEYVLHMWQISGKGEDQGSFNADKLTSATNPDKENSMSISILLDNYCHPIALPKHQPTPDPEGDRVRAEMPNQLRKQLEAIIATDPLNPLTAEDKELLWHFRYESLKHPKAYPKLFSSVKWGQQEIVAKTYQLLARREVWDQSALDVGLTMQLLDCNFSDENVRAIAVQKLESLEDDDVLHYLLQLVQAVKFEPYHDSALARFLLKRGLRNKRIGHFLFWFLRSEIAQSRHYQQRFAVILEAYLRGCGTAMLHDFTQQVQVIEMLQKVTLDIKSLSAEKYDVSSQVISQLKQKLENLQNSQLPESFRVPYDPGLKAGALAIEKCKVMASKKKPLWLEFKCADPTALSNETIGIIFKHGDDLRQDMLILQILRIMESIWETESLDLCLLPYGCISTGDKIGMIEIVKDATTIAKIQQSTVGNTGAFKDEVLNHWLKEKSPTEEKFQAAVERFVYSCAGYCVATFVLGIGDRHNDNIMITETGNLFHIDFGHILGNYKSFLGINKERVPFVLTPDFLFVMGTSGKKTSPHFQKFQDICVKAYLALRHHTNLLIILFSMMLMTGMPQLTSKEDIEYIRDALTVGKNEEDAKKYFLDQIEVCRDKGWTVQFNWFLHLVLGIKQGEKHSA

One data set addresses PI-3 kinase γ (Homo sapiens, UniProt P48736). The data set can be described thus: PI3Kγ inhibitory activity, PI3-kinase HTRF assay (Millipore). It is filed as biochemical. The following applies: 0.5 h; compound 50 μM; read-out: Inhibition ratio % (50 μM). The method, then: (Method) The PI3Kγ inhibitory activity of a compound was evaluated using PI3-kinase HTRF™ assay (Millipore) according to the following procedure.
To each well of a testing plate was added 5 μL of a compound solution comprising 10% DMSO (200 μM as the concentration of the compound), 5 μL of 40 μM phosphatidylinositol (4,5)-bisphosphate/20 mM MgCl2/10 mM DTT, and 5 μL of 80 μg/mL PI-3 kinase γ/10 mM MgCl2/5 mM DTT, and then stood for 10 minutes.
Then, 5 μL of 40 μM ATP/10 mM MgCl2/5 mM DTT was added thereto. After reacting for 30 minutes at room temperature, 5 μL of a solution comprising EDTA and biotinylated phosphatidylinositol (3,4,5)-triphosphate was added to quench the reaction.
5 μL of a detection reagent comprising a europium-labeled anti-GST antibody, the GST-tagged PH domain, and allophycocyanin-labeled streptavidin was added thereto. After 18 hours, HTRF (excitation wavelength: 330 nm, measuring wavelengths: 620 nm and 665 nm) was measured.
A value of dividing an amount of fluorescence obtained at the measuring wavelength 665 nm by an amount of fluorescence obtained at 620 nm was defined as an HTRF ratio. The HTRF ratio in the absence of a compound was defined as 100% activity, and the HTRF ratio in the absence of PI-3 kinase γ was defined as 0% activity to calculate an inhibition ratio.
Background: TR-FRET usually uses a lanthanide donor and a delayed reading to cut background.
For `CNC(=O)Nc1cn2nc(-c3cccc(C(=O)O)c3)ccc2n1` [Compound I-28], the inhibition at 50 µM is 89%.

For `CNC(=O)Nc1cn2nc(-c3cccc(C(N)=O)c3)ccc2n1` [Compound I-29], the inhibition at 50 µM was 84%.

For `CNC(=O)Nc1cn2nc(-c3cccc(S(C)(=O)=O)c3)ccc2n1` [Compound I-75], the inhibition at 50 µM amounted to 84%.

`COc1cccc(-c2ccc3nc(NC(=O)Nc4ccccc4)cn3n2)c1` [Compound I-118]: the inhibition at 50 µM stood at 64%.

As to `CNC(=O)Nc1cn2nc(-c3cccc(CCCO)c3)ccc2n1` [Compound I-136], the inhibition at 50 µM is 79%.

As to `COc1cccc(-c2ccc3nc(NC(=O)c4ccccc4Cl)cn3n2)c1` [Compound I-163], the inhibition at 50 µM came out at 58%.

As for `COc1cccc(-c2ccc3nc(NC(=O)CCCn4cncn4)cn3n2)c1` [Compound I-210], the inhibition at 50 µM was 85%.

With `COc1cccc(-c2ccc3nc(NC(=O)Nc4nccs4)cn3n2)c1` [Compound I-232], the inhibition at 50 µM is 51%.

With `COc1cccc(-c2ccc3nc(NC(=O)NC4CCCCNC4=O)cn3n2)c1` (stereo not drawn) [Compound I-233], the inhibition at 50 µM is 79%.

Take `COc1cccc(-c2ccc3nc(NC(=O)NCc4ccco4)cn3n2)c1` [Compound I-234]: the inhibition at 50 µM came to 71%.

Regarding `COc1cccc(-c2ccc3nc(NC(=O)NCCCN4CCCC4=O)cn3n2)c1` [Compound I-235], the inhibition at 50 µM amounted to 78%.

Turning to `COc1cccc(-c2ccc3nc(NC(=O)NCc4ccccn4)cn3n2)c1` [Compound I-236], the inhibition at 50 µM came out at 67%.

For the compound `COc1cccc(-c2ccc3nc(NC(=O)NCCNC(C)=O)cn3n2)c1` [Compound I-237], the inhibition at 50 µM is 74%.

For `COc1cccc(-c2ccc3nc(NC(=O)NCc4cccnc4)cn3n2)c1` [Compound I-239], the inhibition at 50 µM came to 74%.

As for `COc1cccc(-c2ccc3nc(NC(=O)N4CCC[C@H]4CO)cn3n2)c1` [Compound I-240], the inhibition at 50 µM worked out at 73%.

`COc1cccc(-c2ccc3nc(NC(=O)Nc4ccc5[nH]ccc5c4)cn3n2)c1` [Compound I-241]: the inhibition at 50 µM is 67%.

For `COc1cccc(-c2ccc3nc(NC(=O)Nc4ccon4)cn3n2)c1` [Compound I-243], the inhibition at 50 µM came to 78%.

Regarding `COCCCNC(=O)Nc1cn2nc(-c3cccc(OC)c3)ccc2n1` [Compound I-244], the inhibition at 50 µM amounted to 87%.

Take `COCCNC(=O)Nc1cn2nc(-c3cccc(OC)c3)ccc2n1` [Compound I-245]: the inhibition at 50 µM is 76%.

As to `COc1cccc(-c2ccc3nc(NC(=O)N4CCC[C@H]4C(=O)OC(C)(C)C)cn3n2)c1` [Compound I-249], the inhibition at 50 µM came to 59%.

For the compound `COc1cccc(-c2ccc3nc(NC(=O)NCc4ccoc4)cn3n2)c1` [Compound I-254], the inhibition at 50 µM was 77%.

As for `COc1cccc(-c2ccc3nc(NC(=O)NCc4nccs4)cn3n2)c1` [Compound I-255], the inhibition at 50 µM stood at 75%.

`CCOC(=O)CCCNC(=O)Nc1cn2nc(-c3cccc(OC)c3)ccc2n1` [Compound I-257]: the inhibition at 50 µM worked out at 83%.

As for `COc1cccc(-c2ccc3nc(NC(=O)NCC4COCCO4)cn3n2)c1` (stereo not drawn) [Compound I-258], the inhibition at 50 µM came out at 76%.

Consider `CCOC(=O)CCNC(=O)Nc1cn2nc(-c3cccc(OC)c3)ccc2n1` [Compound I-259], for which the inhibition at 50 µM came out at 68%.

Regarding `COC[C@H]1CCCN1C(=O)Nc1cn2nc(-c3cccc(OC)c3)ccc2n1` [Compound I-261], the inhibition at 50 µM was found to be 59%.

Regarding `COc1cccc(-c2ccc3nc(NC(=O)NCCNC(=O)OC(C)(C)C)cn3n2)c1` [Compound I-263], the inhibition at 50 µM came out at 71%.

In the case of `COc1cccc(-c2ccc3nc(NC(=O)NCCN)cn3n2)c1` [Compound I-264], the inhibition at 50 µM is 67%.

`COc1cccc(-c2ccc3nc(NC(=O)NCCC(=O)N4CCOCC4)cn3n2)c1` [Compound I-268]: the inhibition at 50 µM is 62%.

Take `COc1cccc(-c2ccc3nc(NC(=O)NN4CCc5ccccc54)cn3n2)c1` [Compound I-269]: the inhibition at 50 µM came out at 64%.

Regarding `COc1cccc(-c2ccc3nc(NC(=O)NCCO)cn3n2)c1` [Compound I-270], the inhibition at 50 µM is 82%.

For `COc1cccc(-c2ccc3nc(NC(=O)NC4CCN(S(=O)(=O)C(C)C)CC4)cn3n2)c1` [Compound I-271], the inhibition at 50 µM is 53%.

For the compound `COc1cccc(-c2ccc3nc(NC(=O)NCCC(=O)NC(C)(C)C)cn3n2)c1` [Compound I-272], the inhibition at 50 µM came to 61%.

For `COc1cccc(-c2ccc3nc(NC(=O)NCCC(=O)OC(C)(C)C)cn3n2)c1` [Compound I-273], the inhibition at 50 µM worked out at 85%.

In the case of `COc1cccc(-c2ccc3nc(NC(=O)NN(C)C)cn3n2)c1` [Compound I-276], the inhibition at 50 µM was determined as 87%.

Regarding `COc1cccc(-c2ccc3nc(NC(=O)NCCCN)cn3n2)c1` [Compound I-278], the inhibition at 50 µM is 81%.

Take `COc1cccc(-c2ccc3nc(NC(=O)NCCC(N)=O)cn3n2)c1` [Compound I-279]: the inhibition at 50 µM was 83%.

`CNC(=O)Nc1cn2nc(Sc3cccc(OC)c3)ccc2n1` [Compound I-281]: the inhibition at 50 µM worked out at 78%.

For the compound `CNC(=O)Nc1cn2nc(Cc3cccc(OC)c3)ccc2n1` [Compound I-282], the inhibition at 50 µM stood at 78%.

As to `COc1cccc(-c2ccc3nc(Nc4cccc(C(C)=O)c4)cn3n2)c1` [Compound I-283], the inhibition at 50 µM worked out at 86%.

Turning to `COc1cccc(-c2ccc3nc(Nc4cccc(CO)c4)cn3n2)c1` [Compound I-284], the inhibition at 50 µM came to 111%.

In the case of `COC(=O)c1cccc(Nc2cn3nc(-c4cccc(OC)c4)ccc3n2)c1` [Compound I-285], the inhibition at 50 µM was 96%.

Regarding `COc1cccc(-c2ccc3nc(Nc4cccc([N+](=O)[O-])c4)cn3n2)c1` [Compound I-286], the inhibition at 50 µM was determined as 87%.

As to `COc1ccc(Nc2cn3nc(-c4cccc(OC)c4)ccc3n2)cc1` [Compound I-287], the inhibition at 50 µM came to 101%.

For the compound `COc1cccc(-c2ccc3nc(Nc4ccc(OCCO)cc4)cn3n2)c1` [Compound I-288], the inhibition at 50 µM was 107%.

For the compound `COc1cccc(-c2ccc3nc(Nc4ccc(CO)cn4)cn3n2)c1` [Compound I-289], the inhibition at 50 µM came to 127%.

On to `COc1cccc(-c2ccc3nc(Nc4cccc(O)n4)cn3n2)c1` [Compound I-290], for which the inhibition at 50 µM was determined as 92%.

In the case of `COc1cccc(-c2ccc3nc(NC(C)=O)cn3n2)c1` [Compound I-291], the inhibition at 50 µM was found to be 74%.

Tested on in another data set: not listed separately
The data set can be described thus: Solubility test. The data set is classed as physicochemical. The following applies: 25 °C, fassgf or other biorelevant, kinetic from dmso stock, artificial intestinal juice pH 6.8, 1% DMSO, 25 degrees Celsius. The method, then: 10 mM compound solution was prepared using DMSO, and then 6 μL of the compound solution was added to 594 μL of artificial intestinal juice in pH 6.8 (to 250 mL of 0.2 mol/L potassium dihydrogen phosphate reagent solution was added 118 mL of 0.2 mol/L NaOH reagent solution and water to provide a final volume of 1000 mL). After standing at 25 degrees Celsius for 16 hours, the mixed solution was filtrated with suction. The filtrate was diluted twice with methanol/water (1/1), and then a concentration in the filtration was measured with HPLC or LC/MS/MS by the absolute calibration method.
Broadly, the solubility is the concentration that dissolves in the medium under given conditions. A higher solubility goes with a readily soluble substance. `CNC(=O)Nc1cn2nc(-c3cccc(C(=O)O)c3)ccc2n1` [Compound I-28] gave a solubility at 16 h above 50 µM.

In turn, `CNC(=O)Nc1cn2nc(-c3cccc(S(C)(=O)=O)c3)ccc2n1` [Compound I-75] yielded a solubility at 16 h above 50 µM.

Take `CNC(=O)Nc1cn2nc(-c3cccc(CCCO)c3)ccc2n1` [Compound I-136]: the solubility at 16 h is above 50 µM.

`COc1cccc(-c2ccc3nc(NC(=O)NCCO)cn3n2)c1` [Compound I-270] gave a solubility at 16 h above 50 µM.

Tested on in another data set: not listed separately
As to the kind of experiment: Metabolic stability test, pooled human liver microsome. The data set is classed as in vitro ADME. Particulars: human liver microsome 0.5 mg protein/mL, NADPH, 37 degrees Celsius, 30 minutes. The method, then: After a subject compound was reacted for a certain time using a pooled human liver microsome commercially available, a reacted sample and an unreacted sample are compared to calculate a survival ratio, and then the degree of metabolism in the liver was evaluated.
0.2 mL of a buffer solution (50 mmol/L of Tris-HCl in pH 7.4, 150 mmol/L of potassium chloride, and 10 mmol/L of magnesium chloride) containing a human liver microsome of 0.5 mg protein/mL was reacted in the presence of 1 mmol/L NADPH at 37 degrees Celsius for 0 or 30 minutes (oxidative reaction). After reacting, 50 μL of the reaction solution was added to 100 μL of a solution of methanol/acetonitrile (1/1(v/v)), mixed, and then centrifuged at 3000 rpm for 15 minutes. A test compound in the supernatant was quantitated with LC/MS/MS. An amount of the compound remained at a reaction time of 0 minute was defined as 100%, and, based on that, an amount of the test compound remained after the reaction was calculated.
(Liver microsomes are vesicles of endoplasmic reticulum, rich in cytochrome P450 enzymes.)
Consider `CNC(=O)Nc1cn2nc(-c3cccc(C(=O)O)c3)ccc2n1` [Compound I-28], for which the “Amount of the test compound remained after the reaction” value (from here on “Amount of the test compound remained”) came to 98.6%.

As to `CNC(=O)Nc1cn2nc(-c3cccc(C(N)=O)c3)ccc2n1` [Compound I-29], the “Amount of the test compound remained” value turned out to be 98.8%.

Turning to `COc1cccc(-c2ccc3nc(NC(=O)Nc4ccccc4)cn3n2)c1` [Compound I-118], the “Amount of the test compound remained” value was 95.9%.

As to `COc1cccc(-c2ccc3nc(NC(=O)c4ccccc4Cl)cn3n2)c1` [Compound I-163], the “Amount of the test compound remained” value is 98.1%.

In the case of `COc1cccc(-c2ccc3nc(NC(=O)CCCn4cncn4)cn3n2)c1` [Compound I-210], the “Amount of the test compound remained” value came to 97%.
